Where “and” joins values, the source holds several entries; their conditions need not be identical. Identical values can stand only once.
What was measured:
Assay type in all cases: biochemical
[1] = tested on: sarcosine oxidase (Toyobo); assay: Toyobo Sarcosine Oxidase Enzyme Absorbance with BSA and MIT; details: for % Bias / Sarcosine Oxidase Enzyme Absorbance, MEAN of 1-5: Day 14; for % Bias: 100 ppm MIT vs no MIT; for Sarcosine Oxidase Enzyme Absorbance, MEAN of 1-5: 100 ppm MIT, 37° C.
Experimental: Tables 1-4 depict aqueous solutions comprising varying concentrations of BSA (at concentrations of 0 mg/mL, 5 mg/mL, 25 mg/mL, and 50 mg/mL), varying concentrations of MIT (at concentrations of 50 parts per million and 100 parts per million) or Proclin™ 300 (at concentrations of 0.7% and 1.4%) biocides over a particular time period (measurements were taken at days 0, 4, and 14 after exposure of the enzyme(s) to the aqueous solutions) and the associated enzyme absorbance measurements for sarcosine oxidase (commercially offered for sale by BBI Solutions and Toyobo). Absorbance measurements of the sarcosine oxidase enzyme(s) were taken via spectrophotometer for each aqueous solution (represented as columns 1-5 in Tables 1-4—column 6 is a blank), the absorbance being directly proportional to the enzyme activity being measured-which for Tables 1-4 is sarcosine oxidase enzyme activity. Accordingly, the higher the absorbance measurement, the higher the enzyme activity of sarcosine oxidase. Columns 7-11 represent five replicate readings in which the aqueous solution only contains BSA (i.e., there is no biocide(s) present in the aqueous solution). In addition, the mean values, standard deviations, and coefficients of variation are also presented for the enzyme activity/absorbance of each aqueous solution. All measurements were taken at 37° C.
As depicted below in Table 2, sarcosine oxidase (commercially offered for sale by Toyobo) enzyme activity is measured against various concentrations of MIT (biocide) and BSA (scavenger protein) over a period of 14 days (with absorbance measurements taken at 0, 4, and 14 days) for five different aqueous solutions (represented as columns 1-5-column 6 is a blank).

[2] = tested on: creatininase (BBI Solutions); assay: BBI Solutions Creatininase Enzyme Absorbance with BSA and Proclin 300
From the text: (§1) Absorbance measurements of the creatininase enzyme(s) were taken via spectrophotometer for each aqueous solution (represented as columns 1-5 in Tables 5-8—column 6 is a blank), the absorbance being directly proportional to the enzyme activity being measured-which for Tables 5-8 is creatininase enzyme activity. Accordingly, the higher the absorbance measurement, the higher the enzyme activity of creatininase. […] In addition, the mean values, standard deviations, and coefficients of variation are all presented for the enzyme activity/absorbance of each aqueous solution. All measurements were taken at 37° C.

[3] = tested on: creatininase (Toyobo); assay: Toyobo Creatininase Enzyme Absorbance with BSA and Proclin 300
From the text: as §1

[4] = Day 0, BSA 5 mg/mL only, no Proclin 300, listed as of 0.7% Proclin 300
[5] = Day 0, BSA 5 mg/mL only, no Proclin 300, listed as of 1.4% Proclin 300
[6] = Day 0, BSA 25 mg/mL only, no Proclin 300, listed as of 0.7% Proclin 300
[7] = Day 0, BSA 25 mg/mL only, no Proclin 300, listed as of 1.4% Proclin 300
[8] = Day 0, BSA 50 mg/mL only, no Proclin 300, listed as of 0.7% Proclin 300
[9] = Day 0, BSA 50 mg/mL only, no Proclin 300, listed as of 1.4% Proclin 300
[10] = Day 4, BSA 5 mg/mL only, no Proclin 300, listed as of 0.7% Proclin 300
[11] = Day 4, BSA 5 mg/mL only, no Proclin 300, listed as of 1.4% Proclin 300
[12] = Day 4, BSA 25 mg/mL only, no Proclin 300, listed as of 0.7% Proclin 300
[13] = Day 4, BSA 25 mg/mL only, no Proclin 300, listed as of 1.4% Proclin 300
[14] = Day 4, BSA 50 mg/mL only, no Proclin 300, listed as of 0.7% Proclin 300
[15] = Day 4, BSA 50 mg/mL only, no Proclin 300, listed as of 1.4% Proclin 300
[16] = Day 14, BSA 5 mg/mL only, no Proclin 300, listed as of 0.7% Proclin 300
[17] = Day 14, BSA 5 mg/mL only, no Proclin 300, listed as of 1.4% Proclin 300
[18] = Day 14, BSA 25 mg/mL only, no Proclin 300, listed as of 0.7% Proclin 300
[19] = Day 14, BSA 25 mg/mL only, no Proclin 300, listed as of 1.4% Proclin 300
[20] = Day 14, BSA 50 mg/mL only, no Proclin 300, listed as of 0.7% Proclin 300
[21] = Day 14, BSA 50 mg/mL only, no Proclin 300, listed as of 1.4% Proclin 300
[22] = day 4, Proclin 300 0.7%, 5, 25 and 50 mg/mL BSA
[23] = days 4 and 14, only BSA, no Proclin 300

% Bias ([1]; 25 mg/mL BSA): −0.1%
% Bias ([1]; 50 mg/mL BSA): 0.2%
Sarcosine Oxidase Enzyme Absorbance, MEAN of 1-5 ([1]; 5 mg/mL BSA): 0.31
Sarcosine Oxidase Enzyme Absorbance, MEAN of 1-5 ([1]; 25 mg/mL BSA): 1.41
Sarcosine Oxidase Enzyme Absorbance, MEAN of 1-5 ([1]; 50 mg/mL BSA): 1.42
absorbance of the sarcosine oxidase enzyme compared to samples containing 0 mg/mL of BSA ([1]; days 4 and 14, 5, 25 and 50 mg/mL BSA, with MIT): increased absorbance
sarcosine oxidase absorbance, solutions 7-11 ([1]; days 4 and 14, only BSA, no MIT): increased (or at least maintained)
MEAN absorbance, solutions 7-11 [2, 4]: 0.45
MEAN absorbance, solutions 7-11 [2, 5]: 0.44
MEAN absorbance, solutions 7-11 [2, 6]: 0.45
MEAN absorbance, solutions 7-11 [2, 7]: 0.41
Absorbance, solutions 7-11 [2, 8]: 0.682 and 0.675 and 0.716
MEAN absorbance, solutions 7-11 [2, 8]: 0.48
MEAN absorbance, solutions 7-11 [2, 9]: 0.39
MEAN absorbance, solutions 7-11 [2, 10]: 0.69
MEAN absorbance, solutions 7-11 [2, 11]: 0.65
Absorbance, solutions 7-11 [2, 12]: 0.783 and 0.769 and 0.787 and 0.807
MEAN absorbance, solutions 7-11 [2, 12]: 0.56
MEAN absorbance, solutions 7-11 [2, 13]: 0.52
MEAN absorbance, solutions 7-11 [2, 14]: 0.44
MEAN absorbance, solutions 7-11 [2, 15]: 0.44
Absorbance, solutions 7-11 [2, 16]: 0.993 and 0.992 and 0.972 and 1.009
MEAN absorbance, solutions 7-11 [2, 16]: 0.76
MEAN absorbance, solutions 7-11 [2, 17]: 0.75
MEAN absorbance, solutions 7-11 [2, 18]: 0.60
MEAN absorbance, solutions 7-11 [2, 19]: 0.59
MEAN absorbance, solutions 7-11 [2, 20]: 0.44
MEAN absorbance, solutions 7-11 [2, 21]: 0.42
absorbance of the creatininase enzyme compared to samples containing 0 mg/mL of BSA [2, 22]: mild increase
creatininase absorbance, solutions 7-11 [2, 23]: increased (or at least maintained)
Absorbance, solutions 7-11 [3, 4]: 0.749
MEAN absorbance, solutions 7-11 [3, 4]: 0.61
Absorbance, solutions 7-11 [3, 5]: 0.569 and 0.573 and 0.57 and 0.582
MEAN absorbance, solutions 7-11 [3, 5]: 0.47
Absorbance, solutions 7-11 [3, 6]: 0.529
MEAN absorbance, solutions 7-11 [3, 6]: 0.40
Absorbance, solutions 7-11 [3, 7]: 0.508 and 0.507 and 0.518 and 0.514
MEAN absorbance, solutions 7-11 [3, 7]: 0.41
Absorbance, solutions 7-11 [3, 8]: 0.973
MEAN absorbance, solutions 7-11 [3, 8]: 1.39
Absorbance, solutions 7-11 [3, 9]: 0.488 and 0.464 and 0.506
MEAN absorbance, solutions 7-11 [3, 9]: 0.39
MEAN absorbance, solutions 7-11 [3, 10]: 0.87
MEAN absorbance, solutions 7-11 [3, 11]: 0.78
MEAN absorbance, solutions 7-11 [3, 12]: 0.68
MEAN absorbance, solutions 7-11 [3, 13]: 0.64
MEAN absorbance, solutions 7-11 [3, 14]: 0.56
MEAN absorbance, solutions 7-11 [3, 15]: 0.54
MEAN absorbance, solutions 7-11 [3, 16]: 0.92
MEAN absorbance, solutions 7-11 [3, 17]: 0.90
MEAN absorbance, solutions 7-11 [3, 18]: 0.71
MEAN absorbance, solutions 7-11 [3, 19]: 0.71
MEAN absorbance, solutions 7-11 [3, 20]: 0.58
MEAN absorbance, solutions 7-11 [3, 21]: 0.57
absorbance of the creatininase enzyme compared to samples containing 0 mg/mL of BSA [3, 22]: increased (albeit a mild increase)
creatininase absorbance, solutions 7-11 [3, 23]: increased (or at least maintained)
Substance: bovine serum albumin [BSA]
Absorbance, solutions 7-11 [2, 4]: 0.658 and 0.656 and 0.654 and 0.693 and 0.67
Absorbance, solutions 7-11 [2, 5]: 0.65 and 0.644 and 0.679 and 0.656 and 0.652
Absorbance, solutions 7-11 [2, 6]: 0.669 and 0.654 and 0.645 and 0.676 and 0.685
Absorbance, solutions 7-11 [2, 7]: 0.613 and 0.607 and 0.624 and 0.644 and 0.627
Absorbance, solutions 7-11 [2, 9]: 0.593 and 0.598 and 0.617 and 0.624 and 0.606
Absorbance, solutions 7-11 [2, 10]: 0.886 and 0.907 and 0.938 and 0.922 and 0.893
Absorbance, solutions 7-11 [2, 11]: 0.863 and 0.829 and 0.895 and 0.929 and 0.882
Absorbance, solutions 7-11 [2, 13]: 0.757 and 0.715 and 0.735 and 0.756 and 0.767
Absorbance, solutions 7-11 [2, 14]: 0.671 and 0.651 and 0.656 and 0.677 and 0.657
Absorbance, solutions 7-11 [2, 15]: 0.671 and 0.657 and 0.676 and 0.674 and 0.645
Absorbance, solutions 7-11 [2, 17]: 0.987 and 0.959 and 0.967 and 1.007 and 0.986
Absorbance, solutions 7-11 [2, 18]: 0.841 and 0.843 and 0.815 and 0.846 and 0.808
Absorbance, solutions 7-11 [2, 19]: 0.825 and 0.799 and 0.805 and 0.829 and 0.817
Absorbance, solutions 7-11 [2, 20]: 0.672 and 0.653 and 0.659 and 0.682 and 0.685
Absorbance, solutions 7-11 [2, 21]: 0.652 and 0.643 and 0.64 and 0.67 and 0.655

Reference: patent US11339419B2, “Scavenger protein(s) for improved preservation of analyte detection sensor(s) and method(s) of use thereof” (Siemens Healthcare Diagnostics Inc., priority 2017, dated 2022)
